Reference: PubChem BioAssay AID330 (DTP/NCI, 2004)
Where “and” joins values, the source holds several entries; their conditions need not be identical. Equal values may be shown once. Inconclusive results and toxic doses are left out. The calls were made as follows: active = survival T/C of 150% or more; inactive = T/C below 125% in these data.

Tested on: P388 leukemia ip, CD2F1 mice, survival T/C
Assay: NCI In Vivo Anticancer Drug Screen. Data for tumor model P388 Leukemia (intraperitoneal) in CD2F1 (CDF1) mice
Details: endpoint: median survival time, higher = longer survival
Summary of the method: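 Mice carrying the transplanted tumor received test compound or vehicle. Survival was recorded in each group, and the value is the treated-group measurement divided by that of the vehicle-treated control group.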

[1] = dose: 60.0 mg/kg/injection, schedule: Q01DX005 (ip), vehicle: saline
[2] = dose: 120.0 mg/kg/injection, schedule: Q01DX005 (ip), vehicle: saline
[3] = dose: 240.0 mg/kg/injection, schedule: Q01DX005 (ip), vehicle: saline
[4] = dose: 50.0 mg/kg/injection, schedule: Q01DX005 (ip), vehicle: saline with Tween-80
[5] = dose: 100.0 mg/kg/injection, schedule: Q01DX005 (ip), vehicle: saline with Tween-80
[6] = dose: 200.0 mg/kg/injection, schedule: Q01DX005 (ip), vehicle: saline with Tween-80

Measured: T/C

CN(C)c1ccc(/C=N/NC(=O)CC2CCCCC2)cc1
inactive: dose: 60.0 mg/kg/injection, schedule: Q01DX005 (ip), vehicle: saline with Tween-80 100 % of control | dose: 120.0 mg/kg/injection, schedule: Q01DX005 (ip), vehicle: saline with Tween-80 108 % of control | dose: 240.0 mg/kg/injection, schedule: Q01DX005 (ip), vehicle: saline with Tween-80 102 % of control

CCCCCCCCCCCSSCCCCCCCCCCC
inactive: dose: 100.0 mg/kg/injection, schedule: Q01DX009 (ip), vehicle: other 100 % of control | dose: 100.0 mg/kg/injection, schedule: Q04DX003 (ip), vehicle: other 109 % of control | dose: 200.0 mg/kg/injection, schedule: Q01DX009 (ip), vehicle: other 109 % of control | dose: 200.0 mg/kg/injection, schedule: Q04DX003 (ip), vehicle: other 104 % of control | dose: 400.0 mg/kg/injection, schedule: Q01DX009 (ip), vehicle: other 104 % of control | dose: 400.0 mg/kg/injection, schedule: Q04DX003 (ip), vehicle: other 100 % of control

COc1ccc2nc(NC(=O)Nc3ccc(C)c(NC(=O)Nc4nc5ccc(OC)cc5s4)c3)sc2c1
inactive: dose: 50.0 mg/kg/injection, schedule: Q01DX009 (ip), vehicle: Klucel (hydroxypropylcellulose) (HPC) 92 % of control | dose: 100.0 mg/kg/injection, schedule: Q01DX009 (ip), vehicle: Klucel (hydroxypropylcellulose) (HPC) 89 % of control

COC(=O)CCc1c(C)nc(N(C)C)oc1=O
inactive: [1] 100 % of control | [2] 100 % of control | [3] 99 % of control

CCCCCCCCC[N+]1([O-])CCOCC1
inactive: dose: 50.0 mg/kg/injection, schedule: Q01DX009 (ip), vehicle: saline 100 % of control | dose: 100.0 mg/kg/injection, schedule: Q01DX009 (ip), vehicle: saline 97 % of control | dose: 200.0 mg/kg/injection, schedule: Q01DX009 (ip), vehicle: saline 88 % of control

Cc1ccc([N+](=O)[O-])cc1NC(=O)COc1ccc(Cl)cc1
inactive: dose: 100.0 mg/kg/injection, schedule: Q04DX003 (ip), vehicle: saline with Tween-80 100 % of control | dose: 200.0 mg/kg/injection, schedule: Q04DX003 (ip), vehicle: saline with Tween-80 90 % of control | dose: 400.0 mg/kg/injection, schedule: Q04DX003 (ip), vehicle: saline with Tween-80 90 % of control

CCOC(=O)N(C)N=NC
inactive: dose: 3.75 mg/kg/injection, schedule: Q01DX005 (ip), vehicle: saline 100 % of control | dose: 7.5 mg/kg/injection, schedule: Q01DX005 (ip), vehicle: saline 107 % of control and 109 % of control | dose: 15.0 mg/kg/injection, schedule: Q01DX005 (ip), vehicle: saline 105 % of control | dose: 30.0 mg/kg/injection, schedule: Q01DX005 (ip), vehicle: saline 120 % of control

CO/N=C1/OC(=O)OCC1(c1ccccc1)c1ccccc1
inactive: [4] 100 % of control | [5] 104 % of control | [6] 100 % of control

CN(C)CCC(=O)C(=Cc1cccs1)C(=O)CCN(C)C
inactive: [1] 101 % of control | [2] 98 % of control | [3] 106 % of control

Nc1[nH]c(=S)[nH]c(=O)c1NS(=O)(=O)c1ccc([N+](=O)[O-])cc1
inactive: dose: 30.0 mg/kg/injection, schedule: Q01DX005 (ip), vehicle: Klucel (hydroxypropylcellulose) (HPC) 101 % of control and 108 % of control | dose: 60.0 mg/kg/injection, schedule: Q01DX005 (ip), vehicle: Klucel (hydroxypropylcellulose) (HPC) 98 % of control and 94 % of control | dose: 120.0 mg/kg/injection, schedule: Q01DX005 (ip), vehicle: Klucel (hydroxypropylcellulose) (HPC) 101 % of control and 92 % of control | dose: 240.0 mg/kg/injection, schedule: Q01DX005 (ip), vehicle: Klucel (hydroxypropylcellulose) (HPC) 90 % of control

CN(C)c1ccc(/C=C/c2ccc3ccccc3[n+]2C)cc1
inactive: dose: 1.0 mg/kg/injection, schedule: Q01DX009 (ip), vehicle: saline sonified 123 % of control | dose: 1.5 mg/kg/injection, schedule: Q01DX009 (ip), vehicle: saline sonified 123 % of control | dose: 2.3 mg/kg/injection, schedule: Q01DX009 (ip), vehicle: saline sonified 119 % of control | dose: 6.25 mg/kg/injection, schedule: Q04DX003 (ip), vehicle: saline sonified 100 % of control | dose: 12.5 mg/kg/injection, schedule: Q04DX003 (ip), vehicle: saline sonified 109 % of control | dose: 25.0 mg/kg/injection, schedule: Q04DX003 (ip), vehicle: saline sonified 113 % of control

O=C(O)c1c2ccccc2nc2[nH]c(=O)[nH]c(=O)c12
inactive: dose: 50.0 mg/kg/injection, schedule: Q01DX005 (ip), vehicle: Klucel (hydroxypropylcellulose) (HPC) 114 % of control and 95 % of control | dose: 50.0 mg/kg/injection, schedule: Q01DX005 (ip), vehicle: Klucel + Tween-80 117 % of control | dose: 100.0 mg/kg/injection, schedule: Q01DX005 (ip), vehicle: Klucel (hydroxypropylcellulose) (HPC) 107 % of control and 95 % of control | dose: 100.0 mg/kg/injection, schedule: Q01DX005 (ip), vehicle: Klucel + Tween-80 107 % of control | dose: 200.0 mg/kg/injection, schedule: Q01DX005 (ip), vehicle: Klucel (hydroxypropylcellulose) (HPC) 114 % of control | dose: 200.0 mg/kg/injection, schedule: Q01DX005 (ip), vehicle: Klucel + Tween-80 117 % of control

COc1cc2c(C)c[n+]3cc4cc5c(OC)c(OC)ccc5cc4cc3c2cc1OC (tested in a mixture with another compound)
inactive: dose: 3.13 mg/kg/injection, schedule: Q04DX003 (ip), vehicle: distilled water + Tween-80 117 % of control | dose: 6.25 mg/kg/injection, schedule: Q04DX003 (ip), vehicle: distilled water + Tween-80 117 % of control | dose: 12.5 mg/kg/injection, schedule: Q04DX003 (ip), vehicle: distilled water + Tween-80 111 % of control | dose: 25.0 mg/kg/injection, schedule: Q04DX003 (ip), vehicle: distilled water + Tween-80 99 % of control

COC(=O)Nc1ccc2c(c1)Cc1cc(NC(=O)OC)ccc1-2
inactive: [4] 94 % of control | [5] 92 % of control | [6] 90 % of control

CC(C)c1ccc(C2NC(C(=O)O)CS2)cc1 (stereo unspecified)
inactive: dose: 50.0 mg/kg/injection, schedule: Q01DX009 (ip), vehicle: suspension in saline 93 % of control | dose: 100.0 mg/kg/injection, schedule: Q01DX009 (ip), vehicle: suspension in saline 90 % of control

C=C1C(=O)OC2C/C(C)=C/CC/C(C)=C/CCC3(COC(C)=O)OC3CC12 (stereo unspecified)
inactive: dose: 1.0 mg/kg/injection, schedule: Q01DX008 (ip), vehicle: Klucel (hydroxypropylcellulose) (HPC) 99 % of control | dose: 2.0 mg/kg/injection, schedule: Q01DX008 (ip), vehicle: Klucel (hydroxypropylcellulose) (HPC) 100 % of control | dose: 4.0 mg/kg/injection, schedule: Q01DX008 (ip), vehicle: Klucel (hydroxypropylcellulose) (HPC) 97 % of control | dose: 8.0 mg/kg/injection, schedule: Q01DX008 (ip), vehicle: Klucel (hydroxypropylcellulose) (HPC) 103 % of control | dose: 16.0 mg/kg/injection, schedule: Q01DX008 (ip), vehicle: Klucel (hydroxypropylcellulose) (HPC) 107 % of control

Cc1ccccc1NC(=O)OCC(CCl)(CCl)CCl
inactive: dose: 100.0 mg/kg/injection, schedule: Q04DX002 (ip), vehicle: Klucel (hydroxypropylcellulose) (HPC) 99 % of control | dose: 200.0 mg/kg/injection, schedule: Q04DX002 (ip), vehicle: Klucel (hydroxypropylcellulose) (HPC) 96 % of control | dose: 400.0 mg/kg/injection, schedule: Q04DX002 (ip), vehicle: Klucel (hydroxypropylcellulose) (HPC) 89 % of control

CCC(c1ccc(O)cc1)c1cc2c(cc1OCCO)OCO2 (stereo unspecified)
inactive: [4] 95 % of control | [5] 98 % of control | [6] 95 % of control
